Values after ≈ are worked out from the molar mass of the structure shown.
Columns and labels:
Assay type in all cases: physicochemical
[1] = Dissolution tests on product F12511 (HPLC, 5% sodium lauryl sulfate, 2 hours)
Procedure: Dissolution Tests on Product F12511
Spectrophotometric detector set at 220 nm.
C8 graft column (Lichrospher 60RP-Select B), dimensions 25×0.4 cm, particle size: 5 μm.
Flow Rate: 1 ml/min Preparation of Solutions: Solution Under Examination
Introduce an amount of complex corresponding to approximately 100 mg of product F12511 into 100 ml of 5% (m/V) sodium lauryl sulfate in H2O. Subject the system to magnetic stirring in a waterbath at 37° C.±0.5° C. Withdraw 2 ml sample of this suspension after 2 hours of stirring and filter it on a Gelman GHP Acrodisc GF (R) filter.
Dilute the samples 1/5 in the mobile phase. Carry out 2 tests.
Introduce 8 mg of reference product F12511 (starting material used to prepare the complex) in a 100 ml flask and dissolve it in 1 ml of tetrahydrofuran (THF). Make up to volume with the mobile phase.
Inject 20 μl of each control solution. Measure the area of the peak of product F12511 and represent its variation as a function of concentration in the form of a graph. The correlation coefficient is>0.995. Inject 20 μl of the test solution. Measure the area of the peak of product F12511 present in the test solution, and ensure that it lies between that of T1 and of T5 in the range.
If this is not the case, perform a dilution in the solubilizing solvent and/or adjust the injection volume of the test solution.
From this, work out the concentration X (μg/ml) of the test solution.
Calculate the amount of dissolved product F12511 in mg/ml by the following formula:
[formula] • Y: injection volume of the test solution • F: dilution factor Measurements of Specific Surface Areas

[2] = Measurements of specific surface areas (BET); details: specific surface area
Procedure: The specific surface area measurements were carried out on a BET ASAP 2010 adsorption apparatus from Micrometrics.
Before the measuring phase, the sample requires a degassing step. This step consists in evacuating the cell containing the sample until a vacuum of at least 0.003 mm Hg, or approximately 0.004 mbar, is reached stably. This degassing is carried out at a temperature of 50° C. (duration: approximately 16 hours).
At the end of degassing, the cell containing the sample is filled with helium and transferred to the measuring station, where evacuation is repeated before analysis.
Processing of the Adsorption Isotherms
The specific surface area was determined in accordance with the BET theory, i.e., in accordance with the following relationship:
[formula] • W: volume of gas adsorbed (under standard temperature and pressure (STP) conditions) per unit mass of sample. • Wm: volume of gas adsorbed (under STP conditions) in a monolayer per unit mass of sample. • P0: saturation pressure. • C: constant.
The isotherm is then plotted as follows:
As a function of P/P0: we then have a straight line of which the slope and the ordinate at the origin give us C and Wm.
The specific surface area is then given by the following formula: a(m^2·g^−1)=NmNAE • E: space occupancy of the nitrogen molecule. For nitrogen at 77 K operating temperature this is generally taken to be E=0.162 nm^2. • NA: Avogadro's number. • Nm: number of moles of nitrogen adsorbed on a monolayer per unit mass of sample, calculated from Wm. The measurements are carried out within a conventional field of relative pressure in which the BET theory is valid, namely 0.05<P/P0<0.2. In order to verify the validity of this theory, one practical means is to look at the direction in which the quantity Nadsorbed. (1-P/P0) changes as a function of P/P0: it should increase continually with P/P0.
Verify the range of applicability of the BET theory in this way, and if necessary readjust the range of relative pressures.

[3] = Dissolution test ketoprofen powders (UV 260 nm); details: water, 37° C.
Procedure: Powder Analysis Protocol: Dissolution Test Operating conditions:
UV analysis at a wavelength of 260 nm.
Prepare a standard solution in H2O. Ensure that an absorbance<2 is maintained.
(§1) Execution of the Analysis:
(§2) Dissolve the powder with magnetic stirring using a stirrer bar in a waterbath at 37±0.5° C.
(§3) Withdraw 2 ml of this suspension after 2 hours of stirring and filter it on a 0.45 μm Gelman GHP filter. Carry out the UV analysis, ensuring that the absorbance is less than 2. If it is not, carry out dilution.

[4] = Dissolution test terfenadine powders (UV 259 nm); details: water, 37° C.
Procedure: Powder Analysis Protocol: Dissolution Test Operating Conditions:
UV analysis at a wavelength of 259 nm.
Prepare a standard solution in 1% (m/v) sodium lauryl sulfate in H2O. Ensure that an absorbance<2 is maintained.
as §1, §2, §3

[5] = Comparative Example 1, 2 hours, 5% sodium lauryl sulfate, 37° C.
[6] = Comparative Example 2, dissolution after two hours, 5% sodium lauryl sulfate, 37° C.

CCCCCCCCCCCCS[C@H](C(=O)Nc1cc(C)c(O)c(C)c1C)c1ccccc1 [F12511 precipitated by SAS]
Dissolution [1, 5]: 62 µg/mL
Dissolution ([1]; summary table, powder after precipitation or coprecipitation only, no molecular diffusion): 62 µg/mL
BET ([2]; Comparative Example 1): 54 m^2/g

CC(C(=O)O)c1cccc(C(=O)c2ccccc2)c1 (stereo not shown) [Ketoprofen]
concentration after 2 hours of dissolution, Active principle alone [3]: 333 µg/mL

CCCCCCCCCCCCS[C@H](C(=O)Nc1cc(C)c(O)c(C)c1C)c1ccccc1 [Example F12511, (S)-2′,3′,5′-trimethyl-4′-hydroxy-α-dodecylthiophenyl-acetanilide]
Dissolution [1, 5]: 6 to 12 µg/mL
Dissolution [1, 6]: 12 µg/mL
Dissolution ([1]; Comparative Example 3, 2 hours, 5% sodium lauryl sulfate, 37° C.): 12 µg/mL
Dissolution ([1]; Comparative Example 5 (F12511 generated by SAS/ethanol), 2 hours, 5% sodium lauryl sulfate, 37° C., listed as F12511 before precipitation): ~15 µg/mL
Dissolution ([1]; Comparative Example 6 (F12511 generated by SAS/DMSO), 2 hours, 5% sodium lauryl sulfate, 37° C., listed as F12511 before precipitation): 5 µg/mL
Dissolution ([1]; Comparative Example 7 (F12511 generated by RESS), 2 hours, 5% sodium lauryl sulfate, 37° C., listed as F12511 before precipitation): ~10 µg/mL
Dissolution ([1]; Example 4 (coprecipitation SAS/DMSO with γ-cyclodextrin), 2 hours, 5% sodium lauryl sulfate, 37° C.): ~15 µg/mL
Dissolution of 2 hours, Active principle alone ([1]; F12511 alone): 12 µg/mL
solubility after 2 hours in 5% aqueous sodium lauryl sulfate solution ([1]; after 2 hours, 5% aqueous sodium lauryl sulfate): 6 µg/mL (≈ 12.8 µM)
BET ([2]; Comparative Example 1): 14 m^2/g
BET ([2]; Comparative Example 2): 14 m^2/g

CC(C)(C)c1ccc(C(O)CCCN2CCC(C(O)(c3ccccc3)c3ccccc3)CC2)cc1 (stereo not shown) [Terfenadine]
concentration after 2 hours of dissolution, Active principle alone [4]: <1 µg/mL

CCCCCCCCCCCCS[C@H](C(=O)Nc1cc(C)c(O)c(C)c1C)c1ccccc1 [F12511 precipitated by RESS]
Dissolution [1, 6]: 76 µg/mL
Dissolution ([1]; summary table, powder after precipitation or coprecipitation only, no molecular diffusion, listed as Comp. Ex. 2): 76 µg/mL
BET ([2]; Comparative Example 2): 67 m^2/g

CCCCCCCCCCCCS[C@H](C(=O)Nc1cc(C)c(O)c(C)c1C)c1ccccc1
Dissolution ([1]; Comparative Example 5 (F12511 generated by SAS/ethanol), 2 hours, 5% sodium lauryl sulfate, 37° C.): 80 µg/mL
Dissolution ([1]; Comparative Example 6 (F12511 generated by SAS/DMSO), 2 hours, 5% sodium lauryl sulfate, 37° C.): 57 µg/mL
Dissolution ([1]; Comparative Example 7 (F12511 generated by RESS), 2 hours, 5% sodium lauryl sulfate, 37° C.): 8 µg/mL

— patent US7390411B2, “Method for preparing a compound of interaction of active substances with a porous support using supercritical fluid” (Pierre Fabre Medicament, priority 2001, dated 2008)
